Earlier results as cited in patent publication US20110144207A1, “ARYL ALKYL CARBOXYLIC ACID SALTS, PROCESS FOR PREPARATION AND DOSAGE FORMS” (SHASUN CHEMICALS AND DRUGS LIMITED, priority 2008, published 2011).
Where a name gives a salt, the structure may show the parent alone. Read-outs that look alike come from different tables or passages of the source.

Assays:
[1] = as described in EP application 1149828
[2] = compared with conventional ibuprofen

In the case of `O=C(O)Cc1ccccc1Nc1c(Cl)cccc1Cl` [diclofenac sodium salt], the hygroscopic property ([1]; sodium salt) is listed as “hygroscopic”.
In the case of `O=C(O)Cc1ccccc1Nc1c(Cl)cccc1Cl` [diclofenac sodium salt hemihydrate], the hygroscopic property ([1]; sodium salt hemihydrate) is listed as “no hygroscopic property”.
For `CC(C)Cc1ccc(C(C)C(=O)O)cc1.O.O.[Na]` (stereo not shown) [ibuprofen sodium dihydrate, Ibuprofen Sodium Dihydrate], the “Cmax (peak concentration)” value [2] is listed as “significantly higher” and the “tmax (time to peak concentration)” value [2] is listed as “earlier”.
